Test results: ChEMBL document CHEMBL4321821, “Opioids as Substrates and Inhibitors of the Genetically Highly Variable Organic Cation Transporter OCT1” (J Med Chem, 2019)

B1: Solute carrier family 22 member 1 (Homo sapiens) (protein)
chain: MPTVDDILEQVGESGWFQKQAFLILCLLSAAFAPICVGIVFLGFTPDHHCQSPGVAELSQRCGWSPAEELNYTVPGLGPAGEAFLGQCRRYEVDWNQSALSCVDPLASLATNRSHLPLGPCQDGWVYDTPGSSIVTEFNLVCADSWKLDLFQSCLNAGFLFGSLGVGYFADRFGRKLCLLGTVLVNAVSGVLMAFSPNYMSMLLFRLLQGLVSKGNWMAGYTLITEFVGSGSRRTVAIMYQMAFTVGLVALTGLAYALPHWRWLQLAVSLPTFLFLLYYWCVPESPRWLLSQKRNTEAIKIMDHIAQKNGKLPPADLKMLSLEEDVTEKLSPSFADLFRTPRLRKRTFILMYLWFTDSVLYQGLILHMGATSGNLYLDFLYSALVEIPGAFIALITIDRVGRIYPMAMSNLLAGAACLVMIFISPDLHWLNIIIMCVGRMGITIAIQMICLVNAELYPTFVRNLGVMVCSSLCDIGGIITPFIVFRLREVWQALPLILFAVLGLLAAGVTLLLPETKGVALPETMKDAENLGRKAKPKENTIYLKVQTSEPSGT
B2: Solute carrier family 22 member 3 (Homo sapiens) (protein)
chain: MPSFDEALQRVGEFGRFQRRVFLLLCLTGVTFAFLFVGVVFLGTQPDHYWCRGPSAAALAERCGWSPEEEWNRTAPASRGPEPPERRGRCQRYLLEAANDSASATSALSCADPLAAFPNRSAPLVPCRGGWRYAQAHSTIVSEFDLVCVNAWMLDLTQAILNLGFLTGAFTLGYAADRYGRIVIYLLSCLGVGVTGVVVAFAPNFPVFVIFRFLQGVFGKGTWMTCYVIVTEIVGSKQRRIVGIVIQMFFTLGIIILPGIAYFIPNWQGIQLAITLPSFLFLLYYWVVPESPRWLITRKKGDKALQILRRIAKCNGKYLSSNYSEITVTDEEVSNPSFLDLVRTPQMRKCTLILMFAWFTSAVVYQGLVMRLGIIGGNLYIDFFISGVVELPGALLILLTIERLGRRLPFAASNIVAGVACLVTAFLPEGIAWLRTTVATLGRLGITMAFEIVYLVNSELYPTTLRNFGVSLCSGLCDFGGIIAPFLLFRLAAVWLELPLIIFGILASICGGLVMLLPETKGIALPETVDDVEKLGSPHSCKCGRNKKTPVSRSHL

What was measured:
OCT1 (SLC22A1) [1] = biological target: T1, OCT1 (SLC22A1) (Homo sapiens, UniProt O15245); test: Substrate activity at human OCT1 expressed in HEK293 cells assessed as increase in compound uptake at 0.05 uM incubated for 2 mins by LC-MS/MS analysis relative to control empty vector transfected cells; assay type: cell-based; conditions: HEK293 cells that express human OCT1, read-out: FC
T1 sequence (O15245 whole entry): B1 chain

OCT1 (SLC22A1) [2] = biological target: T1, OCT1 (SLC22A1); test: Substrate activity at human OCT1 expressed in HEK293 cells assessed as increase in compound uptake at 0.1 uM incubated for 2 mins by LC-MS/MS analysis relative to control empty vector transfected cells; assay type: cell-based; conditions: HEK293 cells that express human OCT1, read-out: FC
OCT1 (SLC22A1) [3] = biological target: T1, OCT1 (SLC22A1); test: Substrate activity at human OCT1 expressed in HEK293 cells assessed as increase in compound uptake at 0.5 uM incubated for 2 mins by LC-MS/MS analysis relative to control empty vector transfected cells; assay type: cell-based; conditions: HEK293 cells that express human OCT1, read-out: FC
in vitro = conditions: PAMPA
Description: Passive membrane permeability by LC-MS/MS analysis based PAMPA

[4] = biological target: T2, Solute carrier family 22 member 1 (Homo sapiens, UniProt O15245); test: Inhibition of human OCT1 expressed in HEK293 cells assessed as reduction in ASP+ substrate uptake by microplate reader based analysis; assay type: cell-based
T2 sequence (O15245 whole entry): B1 chain

[5] = Unbound maximal portal vein concentration of in human at 60 mg, po; assay type: ADME, tissue-based; conditions: in vivo
[6] = Unbound Cmax in human at 60 mg, po; assay type: ADME; conditions: in vivo
[7] = Ratio of unbound maximal portal vein concentration in human at 60 mg, po to inhibition of human OCT1 expressed in HEK293 cells assessed as reduction in ASP+ substrate uptake by microplate reader based analysis; assay type: ADME, organism-based; conditions: in vivo
[8] = Cmax in human at 60 mg, po; assay type: ADME; set-up: dose 60 mg, route oral; conditions: in vivo
[9] = Ratio of unbound Cmax in human at 60 mg, po to inhibition of human OCT1 expressed in HEK293 cells assessed as reduction in ASP+ substrate uptake by microplate reader based analysis; assay type: ADME, organism-based; conditions: in vivo
[10] = Unbound Cmax in human at 86 mg, po dosed as prolonged release formulation; assay type: ADME, organism-based; conditions: in vivo
[11] = Unbound Cmax in human at 34 mg, iv; assay type: ADME; conditions: in vivo
[12] = Unbound maximal portal vein concentration of in human at 34 mg, iv; assay type: ADME, tissue-based; conditions: in vivo
[13] = Ratio of unbound Cmax in human at 34 mg, iv to inhibition of human OCT1 expressed in HEK293 cells assessed as reduction in ASP+ substrate uptake by microplate reader based analysis; assay type: ADME, organism-based; conditions: in vivo
[14] = Ratio of unbound maximal portal vein concentration in human at 80 mg, po dosed as immediate release formulation to inhibition of human OCT1 expressed in HEK293 cells assessed as reduction in ASP+ substrate uptake by microplate reader based analysis; assay type: ADME, organism-based; conditions: in vivo
[15] = Ratio of unbound Cmax in human at 80 mg, po dosed as immediate release formulation to inhibition of human OCT1 expressed in HEK293 cells assessed as reduction in ASP+ substrate uptake by microplate reader based analysis; assay type: ADME, organism-based; conditions: in vivo
[16] = Ratio of unbound Cmax in human at 86 mg, po dosed as prolonged release formulation to inhibition of human OCT1 expressed in HEK293 cells assessed as reduction in ASP+ substrate uptake by microplate reader based analysis; assay type: ADME, organism-based; conditions: in vivo
[17] = Unbound Cmax in human at 80 mg, po dosed as immediate release formulation; assay type: ADME, organism-based; conditions: in vivo
[18] = Ratio of unbound maximal portal vein concentration in human at 86 mg, po dosed as prolonged release formulation to inhibition of human OCT1 expressed in HEK293 cells assessed as reduction in ASP+ substrate uptake by microplate reader based analysis; assay type: ADME, organism-based; conditions: in vivo
[19] = Ratio of unbound maximal portal vein concentration in human at 34 mg, iv to inhibition of human OCT1 expressed in HEK293 cells assessed as reduction in ASP+ substrate uptake by microplate reader based analysis; assay type: ADME, organism-based; conditions: in vivo
[20] = Cmax in human at 86 mg, po dosed as prolonged release formulation; assay type: ADME, organism-based; set-up: dose 86 mg, route oral; conditions: in vivo
[21] = Cmax in human at 34 mg, iv; assay type: ADME; set-up: dose 34 mg, route intravenous; conditions: in vivo
[22] = Cmax in human at 80 mg, po dosed as immediate release formulation; assay type: ADME, organism-based; set-up: dose 80 mg, route oral; conditions: in vivo
[23] = Unbound maximal portal vein concentration of in human at 86 mg, po dosed as prolonged release formulation; assay type: ADME, organism-based; conditions: in vivo
[24] = Unbound maximal portal vein concentration of in human at 80 mg, po dosed as immediate release formulation; assay type: ADME, organism-based; conditions: in vivo
[25] = substrate: CNS(=O)(=O)Cc1ccc2[nH]cc(CCN(C)C)c2c1; test: Substrate activity at human OCT1 expressed in HEK293 cells assessed as increase in compound uptake by measuring Km incubated for 2 mins by LC-MS/MS analysis based Michaelis-Menten plot analysis relative to control empty vector transfected cells; assay type: cell-based
[26] = substrate: C[N+]1(CC2CC2)CC[C@]23c4c5ccc(O)c4O[C@H]2C(=O)CC[C@@]3(O)[C@H]1C5; test: Substrate activity at human OCT3 expressed in HEK293 cells assessed as increase in compound uptake by measuring Km incubated for 2 mins by LC-MS/MS analysis based Michaelis-Menten plot analysis relative to control empty vector transfected cells; assay type: cell-based

Row | Molecule | uptake ratio at 2 min, 0.05 µM (OCT1 (SLC22A1) [1]) | uptake ratio at 2 min, 0.1 µM (OCT1 (SLC22A1) [2]) | uptake ratio at 2 min, 0.5 µM (OCT1 (SLC22A1) [3]) | Papp (in vitro) | IC50 [4] | other results
1 | COc1ccc2c3c1O[C@H]1[C@@H](O)C=C[C@H]4[C@@H](C2)N(C)CC[C@@]341 [CODEINE] | 0.7 | 1 | 0.8 | 8 ×10⁻⁶ cm/s | 236 µM | 
2 | COc1ccc2c(c1)[C@]13CCCC[C@@H]1[C@H](C2)N(C)CC3 [DEXTROMETHORPHAN] | 1.1 | 1.3 | 0.8 | 63.7 ×10⁻⁶ cm/s | 15 to 15.1 µM | fCmax [5]: 4.57 µM; fCmax [6]: 0.007 µM; Ratio [7]: 0.302; Cmax [8]: 20 nM; Ratio [9]: 0.0004
3 | CCOC(=O)C1(c2ccccc2)CCN(C)CC1 [MEPERIDINE] | 1.1 | 1.2 | 1.2 | 40.2 ×10⁻⁶ cm/s | 22.3 µM | 
4 | O=C1CC[C@@]2(O)[C@H]3Cc4ccc(O)c5c4[C@@]2(CCN3CC2CC2)[C@H]1O5 [NALTREXONE] | 0.8 | 0.8 | 1 | 15.1 ×10⁻⁶ cm/s | 158 µM | 
5 | COc1cccc([C@@]2(O)CCCC[C@@H]2CN(C)C)c1 [(R,R)-TRAMADOL] |  |  |  | 26.9 ×10⁻⁶ cm/s | 88.8 µM | 
6 | CCC1(c2cccc(O)c2)CCCCN(C)C1 (configuration not stated) [MEPTAZINOL] | 0.8 | 2.2 | 3.2 | 14.3 ×10⁻⁶ cm/s | 19 µM | 
7 | Oc1ccc2c(c1)[C@@]13CCCC[C@H]1[C@@H](C2)NCC3 [NORLEVORPHANOL] | 14 | 14.9 | 17.4 | 0.7 ×10⁻⁶ cm/s | 24.9 to 25 µM | 
8 | COc1ccc2c3c1O[C@H]1C(=O)CC[C@@]4(O)[C@@H](C2)NCC[C@]314 | 4 | 3.9 | 3.6 | 0.9 ×10⁻⁶ cm/s | 200 µM | 
9 | CNC[C@H]1CCCC[C@]1(O)c1cccc(OC)c1 |  |  |  | 13.4 ×10⁻⁶ cm/s | 55.7 µM | 
10 | COc1ccc2c(c1)[C@@]13CCCC[C@H]1[C@@H](C2)NCC3 | 2.5 | 2.2 | 2 | 17.2 ×10⁻⁶ cm/s | 10 to 10.3 µM | 
11 | CN1CC[C@@]23CCCC[C@@H]2[C@@H]1Cc1ccc(O)cc13 [DEXTRORPHAN] | 2.1 | 1.9 | 1.5 | 5.4 ×10⁻⁶ cm/s | 6 to 6.4 µM | 
12 | CN1CC[C@]23CCCC[C@H]2[C@H]1Cc1ccc(O)cc13 [LEVORPHANOL] | 1.5 | 1.7 | 1.3 | 9.2 ×10⁻⁶ cm/s | 8 to 8.48 µM | 
13 | CN1CC[C@]23c4c5ccc(O)c4O[C@H]2C(=O)CC[C@@]3(O)[C@H]1C5 [OXYMORPHONE] | 2.4 | 1.3 | 0.9 | 3.2 ×10⁻⁶ cm/s | 250 µM | 
14 | COc1ccc2c3c1O[C@H]1C(=O)CC[C@H]4[C@@H](C2)N(C)CC[C@]314 [HYDROCODONE] | 0.9 | 1.6 | 1.2 | 9.1 ×10⁻⁶ cm/s | 537 µM | 
15 | CC[C@@H](c1cccc(O)c1)[C@@H](C)CN(C)C [TAPENTADOL] | 0.9 | 1.6 | 1.5 | 13.6 ×10⁻⁶ cm/s | 21.9 µM | fCmax [10]: 0.08 µM; fCmax [11]: 0.88 µM; fCmax [12]: 8.13 µM; Ratio [13]: 0.04; Ratio [14]: 0.849; Ratio [15]: 0.011; Ratio [16]: 0.004; fCmax [17]: 0.23 µM; Ratio [18]: 0.842; Ratio [19]: 0.371; Cmax [20]: 100 nM; Cmax [21]: 1100 nM; Cmax [22]: 290 nM; fCmax [23]: 18.43 µM; fCmax [24]: 18.58 µM
16 | B1 |  |  |  |  |  | Km [25]: 55 µM
17 | B2 |  |  |  |  |  | Km [26]: 22.5 µM; Vmax [26]: 1.75e-05 µmol/min/mg
